Reference: patent US20060229255A1, “Identification of n-alkylglycine trimers for induction of apoptosis” (priority 2003, published 2006)

Experiments:
HT29 cells = experiment: DNA analysis by flow cytometry (cell cycle profile, sub-G1 peak); assay type: cell-based, human; details: for Dose dependence of subG1 peak: HT29, 72 h, increasing dose 1-35 or 40 μM; for Apoptosis induction (sub-G1 peak detection): HT29, 72 h treatment; for Cells in G1-phase: HT29, compound alone, 24 h in culture; for Maximum apoptosis in time-course: HT29, highest dose assayed, 72 h; for Cell population retained in G2/M phase: HT29, in combination with low doses of Taxol
Protocol: DNA analysis. Floating and adherent cells treated with the compounds were collected by trypsinization and washed twice with PBS. The cells were permeabilized overnight at −20° C. with ice-cold ethanol 70%. The cells were washed in PBS, adjusted at 0.5×10^6 cells/ml and incubated with 20 μg/ml Propidium Iodide and 2 μl/ml RNase DNase-free for 30 min at 30° C. Cells were maintained overnight at 4° C. and then analysed by flow cytometry. Flow cytometric experiments were carried out using an Epics XL flow cytometer (Coulter Corporation, Hialeah, Fla.). The instrumet was set up with the standard configuration: excitation of the sample was done using an standard 488 nm air-cooled argon-ion laser at 15 mW power. Forward scatter (FSC), side scatter (SSC) and red (620 nm) fluorescence for PI were adquired. Optical alignement was based on optimized signal from […] fluorescent beads (Immunocheck, Epics Division). Time was used as a control of the stability of the instrument. Red fluorescence was projected on a 1024 monoparametrical histogram. Aggregates were excluded gating single cells by their area vs. peak fluorescence signal. DNA analysis (Ploidy analysis) on single fluorescence histograms was done using Multicycle software (Phoenix Flow Systems, San Diego, Calif.).
FIG. 2. N10-13-10C and N13-13-10C are pro-apoptotic peptoids while N4-13-10C and N5-13-10C are not. Cell cycle profile was analysed by DNA staining. HT29 cells were grown for 72 h in presence of N4-13-10C (100 μM), N5-13-10C (100 μM), N10-13-10C (40 μM), N13-13-10C (35 μM), Taxol (11 nM) or DMSO as negative control. Fraction of cells at G0/G1, S, G2/M or subG1 peak are specified.
FIG. 3. Specific pro apoptotic effect of N10-13-10C and N13-13-10C. (A) SubG1 peak analysis on several cell lines including HT29, LoVo, MDA.MB.435 and its lung metastatic derivatives lung 2 and lung 6 after 72 h treatment with N10-13-10C or N13-13-10C at IC50 values specified on Table 1. (B) Dose-response analysis of subG1 peak after 72 h treatment of HT29 cells with N 10-13-10C or N13-13-10C at 1, 5, 10, 20, 30 and 35 or 40 μM, respectively. Both, floating and adherent cells were collected, fixed, stained with propidium iodide and DNA content was evaluated by flow cytometry. The fraction of cells with hypodiplod DNA content, i.e. subG1 peak are shown.
FIG. 4. (A) Time course analysis of cell cycle profile after treatment of HT29 cells with N10-13-10C (40 μM), N13-13-10C (35 μM) and/or Taxol (11 nM) for 24 h, 48 h and 72 h. The fraction of cells with subG1 (dark blue), G0/G1 (red), S (yellow), G2/M (blue) DNA content are shown as % of total cell population. (B.) N13-13-10C pulse experiments. HT29 cells were treated transiently with 35 μM N13-13-10C for 1, 3, 6, 24, 48 or 72 h and returned to medium without product for up to 72 h. DNA staining was analyzed by flow cytometry.

T98g glioblastoma cells = experiment: BrdU incorporation assay (DNA synthesis); assay type: cell-based, human; details: synchronized T98 g, 17 h + 2 h BrdU; read-out: IC50 BrdU incorporation (DNA synthesis inhibition)
Protocol: To confirm the G1 arrest of the cell cycle, we analyzed the DNA synthesis by an BrdU incorporation assay. Serial dilutions of the compounds N4-13-10C, N5-13-10C, N10-13-10C, N13-13-10C, etoposide or olomucine were assayed on synchronized T98 g cells as described in FIG. 7. A. Arrested cells were induced to cell cycle re-entry by re-addition of serum alone or with test compounds for 17 h, followed by 2 h in combination with 10 μM BrdU.
BrdU assay. T98g glioblastoma cells at 5000 cells/well in microtiter plates were arrested in G1-phase for 72 h by serum deprivation in MCDB 105 medium. By serum (10%) readdition, cells were treated with serial dilutions of the compounds for 17 h, and followed in combination 10 μM BrdU for […]. BrdU incorporation, i.e. DNA synthesis, was quantified with Cell Proliferation ELISA system, vs. 2 (AmershamPharmacia biotech) as described by the manufacturer.
FIG. 7. […] (A) T98 g cells were synchronized and reinitiated for 19 h with FCS alone or in combination with N10-13-10C (100 μM), N13-13-10C (100 μM), Olomucine (100 μM), etoposide (5 μM) or Taxol (30 nM). Cell cycle profile was assessed by propidium iodide DNA staining and analyzed by flow cytometry. The fraction of cells with G1, S, G2/M DNA content are shown as % of total cell population. (B. and C.) Synchronized T98 g cells were reinitiated with FCS alone or in combination with serial dilutions of N4-13-10C, N5-13-10C, N10-13-10C, N13-13-10C, Olomucine or etoposide for 19 h and labeled with BrdU during the last 2 h. BrdU incorporation was assessed by ELISA using anti-BrdU antibodies. An arbitrary value of 100% was assigned to the densiometric rate of DNA synthesis by untreated cultures and all other values are depicted relative to that reference. The values are means of three (n=3) replicates.

Cdk4/CycD1 = molecular target: T1, Cdk4/CycD1 (Homo sapiens, UniProt P11802); experiment: 33PanQinase Cdk4/CycD1 kinase assay (pRb phosphorylation); assay type: biochemical; details: 3 μM or 30 μM
T1 construct: GST; host or cells: Sf9 insect cells, baculovirus
Protocol: ^33Pan Qinase assays containing cycD, Cdk4 and pRb protein in the presence of 3 μM or 30 μM, N10-13-10C or N13-13-10C, were performed.
To assay Cdk4/CycD1 kinase activity, Cdk4 was expressed in Sf9 insect cells as recombinant GST-fusion protein by means of baculovirus expression system. Kinase assay was performed in 96-well FlashPlates (NEN) in a 50 μl reaction volume using the ^33PanQinase activity assay (ProQinase) and Beckman Coulter/Sagian robotic system. The reaction cocktail was 20 μl of assay buffer (50 mM Hepes-NaOH pH 7.5, 3 mM MgCl2, 3 mM MnCl2, 3 μM Na-orthovanadate, 1 mM DTT, 0.1 μM […]); 1 μg pRb protein; 100 ng enzyme; and 5 μl of test compound in 10% DMSO. The reaction cocktail was incubated at 30° C. for 80 min. The reaction was stopped with 50 μl of 0.2% (v/v) H3PO4, plates were aspirated and washed two times with 0.9% (w/v) NaCl. Incorporation of ^33P was determined with a microplate scintillation counter (Microbeta, Wallac).

T1 sequence (P11802 whole entry): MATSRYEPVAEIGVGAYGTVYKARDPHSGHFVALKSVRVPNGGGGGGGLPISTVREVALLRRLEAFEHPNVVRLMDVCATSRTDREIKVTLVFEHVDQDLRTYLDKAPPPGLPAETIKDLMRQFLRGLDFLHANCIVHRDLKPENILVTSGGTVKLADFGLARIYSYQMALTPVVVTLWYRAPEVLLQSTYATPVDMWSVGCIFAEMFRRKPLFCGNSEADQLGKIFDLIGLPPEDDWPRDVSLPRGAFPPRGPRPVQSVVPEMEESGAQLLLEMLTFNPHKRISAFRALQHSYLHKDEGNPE
T1 sequence (P24385 whole entry partner): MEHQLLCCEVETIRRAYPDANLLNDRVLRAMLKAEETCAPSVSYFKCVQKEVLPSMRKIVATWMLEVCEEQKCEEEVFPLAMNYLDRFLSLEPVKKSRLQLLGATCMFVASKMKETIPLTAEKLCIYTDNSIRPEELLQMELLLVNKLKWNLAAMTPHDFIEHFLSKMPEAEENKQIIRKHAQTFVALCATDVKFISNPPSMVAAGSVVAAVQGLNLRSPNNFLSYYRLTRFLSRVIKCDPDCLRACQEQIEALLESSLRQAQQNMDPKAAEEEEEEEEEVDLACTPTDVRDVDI

In the case of `COc1ccc(CCN(CC(=O)N(CCc2ccccc2)CC(N)=O)C(=O)CNCCc2ccccc2)cc1` [N10-13-10C], the “Dose dependence of subG1 peak” value (HT29 cells) is reported as “dose-dependent apoptosis”, the “Apoptosis induction (sub-G1 peak detection)” value (HT29 cells) is reported as “able to induce apoptosis” and the “Cells in G1-phase” value (HT29 cells) is reported as “increase the percentage of cells in G1-phase”. The “Maximum apoptosis in time-course” value (HT29 cells) was 20%, the “Cell population retained in G2/M phase” value (HT29 cells) was “about 60%” and the IC50 (T98g glioblastoma cells) was 100 µM. For the same compound, the “Inhibition of pRb phosphorylation by cycD/Cdk4” value (Cdk4/CycD1) was “No inhibition”.
In the case of `COc1ccc(CCNCC(=O)N(CCc2ccc(OC)cc2)CC(=O)N(CCc2ccccc2)CC(N)=O)cc1` [N13-13-10C], the “Pulse necessary for irreversible induction of apoptosis” value (HT29 cells; HT29, 35 μM, returned to drug-free medium up to 72 h) is reported as no less than 24 h, the “Dose dependence of subG1 peak” value (HT29 cells) is reported as “dose-dependent apoptosis” and the “Apoptosis induction (sub-G1 peak detection)” value (HT29 cells) is reported as “able to induce apoptosis”. For the same compound, the “Cells in G1-phase” value (HT29 cells) was “increase the percentage of cells in G1-phase”, the “Maximum apoptosis in time-course” value (HT29 cells) was “around 40%” and the “Cell population retained in G2/M phase” value (HT29 cells) was “about 60%”. For the same compound, the “Cell cycle profile after short time pulses” value (HT29 cells; HT29, pulses of 1, 3 and 6 h) was “do not differ from control cells”, the IC50 (T98g glioblastoma cells) was 150 µM and the “Inhibition of pRb phosphorylation by cycD/Cdk4” value (Cdk4/CycD1) was “No inhibition”.
